Laboratory results taken from patent publication US10154988B2, “Methods and compositions for treating schizophrenia” (The Johns Hopkins University, priority 2012, dated 2018).
Where two headings read alike, the source gives them in different places.

Assays:
[1] = levetiracetam blood plasma levels in aMCI patients; assay type: in vivo; conditions: human
From the text: Visit 1: At the end of the first drug/placebo period 2 weeks after the Baseline Visit, the medical, neurological and psychiatric evaluations and cognitive testing are repeated. The subject is also clinically evaluated for suicidal ideation. Blood is drawn again to repeat the standard tests and to determine whether there are any changes related to drug treatment; the subject's blood levetiracetam level is also obtained. All medication that is dispensed at the Baseline Visit (drug or placebo) is collected and subject compliance with the medication regimen is assessed. The first fMRI session (with cognitive tests) is conducted on the same day, either immediately before or immediately after the clinical assessment. Subjects discontinue first period treatment at this visit.
Visit 2: At approximately 2 weeks after the Washout Visit (i.e., 2 weeks after starting the second treatment period), the medical, neurological and psychiatric evaluations and the cognitive testing are repeated. The subject is clinically evaluated for suicidal ideation. Blood is drawn again to repeat the standard tests and to determine whether there are any changes related to drug treatment; the subject's blood levetiracetam level is also obtained. All medication that is dispensed at the Washout Visit is collected and subject compliance with the medication regimen is assessed. The second fMRI session (with cognitive tests) is repeated on the same day, either immediately before or immediately after the clinical assessment.
Visit 2: At approximately 2 weeks after the Washout Visit (i.e., 2 weeks after starting the second treatment period), the medical, neurological and psychiatric evaluations and the cognitive testing are repeated. The subject is clinically evaluated for suicidal ideation. […] All medication being dispensed at the Washout Visit is collected and subject compliance with the medication regimen is assessed. […]
Human – in the human studies described in Examples 3 and 4, a subject's levetiracetam blood plasma level is assessed at each visit. […]

[2] = cited from earlier work

concentration at 2 weeks ([1]; 62.5 mg BID cohort (125 mg/day), SEM±0.288, read-out: mean levetiracetam blood plasma level): 2880 ng/mL
concentration at 2 weeks ([1]; 125 mg BID cohort (250 mg/day), SEM±0.53, read-out: mean levetiracetam blood plasma level): 4400 ng/mL
concentration at 2 weeks ([1]; 250 mg BID cohort (500 mg/day), SEM±0.92, read-out: mean levetiracetam blood plasma level): 7900 ng/mL
SMILES: CC[C@@H](C(N)=O)N1CCCC1=O [levetiracetam, (2S)-2-(2-oxopyrrolidin-1-yl) butanamide]
plasma half-life expected in elderly ([2]; elderly, decreased renal function): 9 to 10 h
time of peak plasma concentrations ([2]; following oral administration): about 1 hour
plasma half-life ([2]; humans): approximately 7±1 hour
time to steady state ([2]; multiple twice-daily dosing): 2 days
absorption after oral administration ([2]; oral): rapidly and almost completely absorbed
effect of food on bioavailability ([2]; oral): not affected by food
